Reference: US9434693B2, “Substituted pyrazoles as N-type calcium channel blockers” (Janssen Pharmaceutica NV, priority 2012, dated 2016)

Target: N-type calcium channel (α1B (Cav2.2), β3 and α2δ subunits) in stable HEK cell line (Homo sapiens (Human), UniProt Q00975)
Test: Functional assay (FDSS calcium mobilization): antagonism of N-type calcium channel
Assay type: cell-based
Settings: for % Inhibition (%) at 0.33 μM / inhibition at 0.33 µM: FDSS, 0.33 μM compound; for IC50: KCl (50 mM) depolarization, six-point concentration-response; for inhibition at 0.33 µM: HEK293
Method: A stable cell line (HEK parent) co-expressing the α1B (Cav2.2), β3 and α2δ subunits of the N-type calcium channel subunits was used. These cells were routinely grown as monolayers in low glucose-containing Dulbecco's Modified Eagle Medium supplemented with 10% FBS, 2 mM L-glutamine, 100 I.U./mL penicillin, 100 μg/mL streptomycin, 400 μg/mL G418 and 200 μg/mL Zeocin (split ratio=1:5). Cells were maintained in 5% CO2 at 37° C. Compounds of Formula (I) were prepared as 10 mM stocks in DMSO from neat compound, if available. Otherwise, the 5 or 10 mM DMSO stock solutions provided in-house were used.
Calcium mobilization responses to KCl depolarization were evaluated by measuring the intensity of calcium-mediated fluorescent signal in the presence of BD Calcium Assay Dye (BD Biosciences, Franklin Lakes, N.J., U.S.A.), utilizing a Functional Drug Screening System (FDSS) by Hamamatsu Corporation (Bridgewater, N.J. U.S.A.).
Twenty-four hr prior to assay, cells were seeded in clear-base poly-D-lysine-coated 384-well plates (BD Biosciences) at a density of 5,000 cells per well in culture medium and grown overnight in 5% CO2 at 37° C. On the day of assay, growth media were removed, and cells were loaded with BD calcium assay dye (BD Biosciences) for 35 min at 37° C. under 5% CO2 and then for 25 min at room temp. Utilizing the FDSS, cells were exposed to representative compounds of Formula (I) at varying concentrations, and intracellular calcium was measured for 5 min prior to the addition of 50 mM KCl for an additional 3 min of measurement.
IC50 values for representative compounds of Formula (I) were determined from six-point concentration-response experiments and represent the concentration of said compound required to inhibit 50% of the maximal response. Maximal fluorescence intensity (FI) achieved upon addition of 50 mM KCl was exported from the FDSS software and further analyzed using GraphPad Prism 3.02 (Graph Pad Software Inc., San Diego, Calif., U.S.A.). Data were normalized to the maximum average counts from quadruplicate wells for each condition in the presence of 50 mM KCl and to the minimum average counts in the presence of buffer. Theoretical curves were generated using nonlinear regression curve-fitting analysis of either sigmoidal concentration-response or sigmoidal concentration-response (variable slope), and the IC50 values with the best-fit curve determined by GraphPad Prism were reported.

Sequence of N-type calcium channel (α1B (Cav2.2), β3 and α2δ subunits) in stable HEK cell line (Q00975 whole entry): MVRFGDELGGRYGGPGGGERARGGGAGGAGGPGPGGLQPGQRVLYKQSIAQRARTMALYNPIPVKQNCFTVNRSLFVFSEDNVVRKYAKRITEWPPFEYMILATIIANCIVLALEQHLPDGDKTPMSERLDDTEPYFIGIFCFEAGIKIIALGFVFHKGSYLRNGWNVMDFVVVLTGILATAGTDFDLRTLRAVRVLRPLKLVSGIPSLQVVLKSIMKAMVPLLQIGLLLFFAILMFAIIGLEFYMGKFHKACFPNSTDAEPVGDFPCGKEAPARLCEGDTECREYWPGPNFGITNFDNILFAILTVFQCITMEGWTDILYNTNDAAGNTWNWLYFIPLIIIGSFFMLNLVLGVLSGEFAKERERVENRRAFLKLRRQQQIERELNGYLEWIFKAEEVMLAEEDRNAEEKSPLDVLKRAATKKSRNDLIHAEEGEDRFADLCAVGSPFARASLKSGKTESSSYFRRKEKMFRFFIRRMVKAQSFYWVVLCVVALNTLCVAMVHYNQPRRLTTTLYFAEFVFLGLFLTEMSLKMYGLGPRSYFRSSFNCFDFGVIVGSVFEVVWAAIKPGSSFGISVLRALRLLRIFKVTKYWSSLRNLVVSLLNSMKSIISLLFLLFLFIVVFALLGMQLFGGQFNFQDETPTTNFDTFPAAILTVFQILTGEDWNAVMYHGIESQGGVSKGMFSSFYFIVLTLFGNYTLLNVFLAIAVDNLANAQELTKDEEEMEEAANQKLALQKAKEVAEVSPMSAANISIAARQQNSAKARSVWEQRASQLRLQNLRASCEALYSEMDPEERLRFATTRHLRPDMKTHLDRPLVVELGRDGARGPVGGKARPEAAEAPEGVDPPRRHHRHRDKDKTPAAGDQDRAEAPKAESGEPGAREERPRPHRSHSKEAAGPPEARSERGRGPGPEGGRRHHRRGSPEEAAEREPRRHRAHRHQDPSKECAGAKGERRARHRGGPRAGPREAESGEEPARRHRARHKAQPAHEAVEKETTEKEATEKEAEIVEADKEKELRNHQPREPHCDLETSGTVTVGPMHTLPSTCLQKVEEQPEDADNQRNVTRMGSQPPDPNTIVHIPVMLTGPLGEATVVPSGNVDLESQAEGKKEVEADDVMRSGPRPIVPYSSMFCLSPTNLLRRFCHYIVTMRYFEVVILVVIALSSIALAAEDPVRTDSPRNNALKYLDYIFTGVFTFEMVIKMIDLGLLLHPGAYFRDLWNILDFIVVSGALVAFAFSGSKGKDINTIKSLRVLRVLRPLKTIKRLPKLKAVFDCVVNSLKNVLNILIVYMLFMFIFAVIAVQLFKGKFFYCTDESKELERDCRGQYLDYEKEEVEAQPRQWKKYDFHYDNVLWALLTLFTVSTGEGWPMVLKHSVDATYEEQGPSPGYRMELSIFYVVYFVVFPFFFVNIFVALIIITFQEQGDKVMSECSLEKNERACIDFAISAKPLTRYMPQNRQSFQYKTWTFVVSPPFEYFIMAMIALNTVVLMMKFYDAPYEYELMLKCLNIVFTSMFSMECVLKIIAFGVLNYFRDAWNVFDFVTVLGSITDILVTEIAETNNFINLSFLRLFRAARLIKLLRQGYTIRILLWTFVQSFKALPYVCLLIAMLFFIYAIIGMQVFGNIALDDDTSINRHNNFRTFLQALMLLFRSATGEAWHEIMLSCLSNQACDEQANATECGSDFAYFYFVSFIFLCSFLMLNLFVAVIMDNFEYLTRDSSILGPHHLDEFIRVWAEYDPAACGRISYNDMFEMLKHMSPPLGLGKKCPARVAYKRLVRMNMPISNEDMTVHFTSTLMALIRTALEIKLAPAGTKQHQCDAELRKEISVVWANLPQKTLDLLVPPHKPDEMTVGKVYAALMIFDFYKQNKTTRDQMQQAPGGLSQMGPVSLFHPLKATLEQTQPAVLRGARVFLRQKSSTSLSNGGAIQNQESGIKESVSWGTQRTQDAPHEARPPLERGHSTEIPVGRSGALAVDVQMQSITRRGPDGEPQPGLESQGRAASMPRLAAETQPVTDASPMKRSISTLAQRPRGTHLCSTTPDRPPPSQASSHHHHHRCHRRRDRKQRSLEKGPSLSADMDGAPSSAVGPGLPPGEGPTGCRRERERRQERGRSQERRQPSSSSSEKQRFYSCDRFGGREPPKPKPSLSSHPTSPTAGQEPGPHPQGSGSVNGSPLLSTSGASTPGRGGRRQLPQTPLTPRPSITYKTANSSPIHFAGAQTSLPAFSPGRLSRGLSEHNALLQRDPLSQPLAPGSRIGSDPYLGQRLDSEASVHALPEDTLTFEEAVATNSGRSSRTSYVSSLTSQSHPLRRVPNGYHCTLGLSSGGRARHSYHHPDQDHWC
Sequence of N-type calcium channel (α1B (Cav2.2), β3 and α2δ subunits) in stable HEK cell line (P54284 whole entry partner): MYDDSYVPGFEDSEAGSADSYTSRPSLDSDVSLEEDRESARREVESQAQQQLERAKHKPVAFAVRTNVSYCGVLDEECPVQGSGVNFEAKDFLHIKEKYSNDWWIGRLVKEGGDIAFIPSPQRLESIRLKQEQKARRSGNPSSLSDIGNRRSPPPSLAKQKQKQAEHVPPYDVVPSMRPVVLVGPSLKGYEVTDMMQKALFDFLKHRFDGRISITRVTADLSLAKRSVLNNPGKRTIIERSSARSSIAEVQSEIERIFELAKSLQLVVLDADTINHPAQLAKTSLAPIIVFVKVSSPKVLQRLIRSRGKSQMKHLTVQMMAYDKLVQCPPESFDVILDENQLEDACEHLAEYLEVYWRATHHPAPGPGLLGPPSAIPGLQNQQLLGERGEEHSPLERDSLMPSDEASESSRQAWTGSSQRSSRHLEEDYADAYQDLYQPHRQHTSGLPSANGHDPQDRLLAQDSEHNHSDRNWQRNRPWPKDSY
Sequence of N-type calcium channel (α1B (Cav2.2), β3 and α2δ subunits) in stable HEK cell line (P54289 25-1103 partner): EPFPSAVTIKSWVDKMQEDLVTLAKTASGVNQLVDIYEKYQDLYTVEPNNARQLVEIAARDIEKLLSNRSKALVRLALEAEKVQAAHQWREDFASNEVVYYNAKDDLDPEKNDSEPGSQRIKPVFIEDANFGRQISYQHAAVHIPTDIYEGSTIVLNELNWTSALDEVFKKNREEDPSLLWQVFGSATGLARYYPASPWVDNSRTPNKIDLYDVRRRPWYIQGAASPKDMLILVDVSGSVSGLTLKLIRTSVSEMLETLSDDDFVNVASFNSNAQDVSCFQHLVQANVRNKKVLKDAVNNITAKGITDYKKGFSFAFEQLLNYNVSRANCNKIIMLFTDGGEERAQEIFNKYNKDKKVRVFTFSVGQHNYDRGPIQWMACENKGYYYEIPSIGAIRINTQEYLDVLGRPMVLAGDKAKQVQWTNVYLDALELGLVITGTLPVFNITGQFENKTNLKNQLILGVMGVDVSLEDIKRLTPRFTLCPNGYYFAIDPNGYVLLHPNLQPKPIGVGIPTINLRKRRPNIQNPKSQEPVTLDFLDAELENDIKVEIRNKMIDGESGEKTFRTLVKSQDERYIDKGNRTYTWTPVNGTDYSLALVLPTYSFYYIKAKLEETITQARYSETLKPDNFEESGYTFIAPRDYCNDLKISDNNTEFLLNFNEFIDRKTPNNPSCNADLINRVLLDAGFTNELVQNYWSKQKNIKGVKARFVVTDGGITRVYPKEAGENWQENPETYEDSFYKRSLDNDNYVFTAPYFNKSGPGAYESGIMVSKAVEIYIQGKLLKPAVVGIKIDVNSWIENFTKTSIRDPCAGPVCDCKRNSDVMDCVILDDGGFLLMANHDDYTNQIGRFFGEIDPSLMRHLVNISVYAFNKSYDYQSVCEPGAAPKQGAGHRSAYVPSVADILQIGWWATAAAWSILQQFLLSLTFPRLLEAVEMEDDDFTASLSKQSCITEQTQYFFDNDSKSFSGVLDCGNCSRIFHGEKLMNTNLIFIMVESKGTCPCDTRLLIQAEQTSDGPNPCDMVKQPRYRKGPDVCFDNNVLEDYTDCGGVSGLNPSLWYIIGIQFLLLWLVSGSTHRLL

Compound	% Inhibition (%) at 0.33 μM	IC50	inhibition at 0.33 µM
COc1ccc(-c2cc(O[C@H]3CC(C)(C)[S@@+]([O-])C(C)(C)C3)nn2-c2ccccc2OC)cc1 [Compound 35, (1s,4s)-4-((1-(2-methoxyphenyl)-5-(4-methoxyphenyl)-1H-pyrazol-3-yl)oxy)-2,2,6,6-tetramethyltetrahydro-2H-thiopyran 1-oxide]	91%	7.6 nM	
CCc1ccccc1-n1nc(OC2CCN(S(C)(=O)=O)CC2)cc1-c1ccc(Cl)cc1 [Compound 19, 4-{[5-(4-Chlorophenyl)-1-(2-ethylphenyl)-1H-pyrazol-3-yl]oxy}-1-(methylsulfonyl)piperidine]		98.5 nM	
COc1ccccc1-n1nc(OC2CCN(C(=O)OC(C)(C)C)CC2)cc1-c1ccc(Cl)cc1 [Compound 1, tert-Butyl 4-{[5-(4-chlorophenyl)-1-(2-methoxyphenyl)-1H-pyrazol-3-yl]oxy}piperidine-1-carboxylate]		30 nM	
COc1ccccc1-n1nc(O[C@H]2CC[C@@H](NC(=O)C(F)(F)F)CC2)cc1-c1ccc(Cl)cc1 [Compound 13, N-(cis-4-{[5-(4-Chlorophenyl)-1-(2-methoxyphenyl)-1H-pyrazol-3-yl]oxy}cyclohexyl)-2,2,2-trifluoroacetamide]		11 nM	
CCc1ccccc1-n1nc(OC2CCC3(CC2)OCCO3)cc1-c1ccc(Cl)cc1 [Compound 17, 5-(4-Chlorophenyl)-3-(1,4-dioxaspiro[4.5]dec-8-yloxy)-1-(2-ethylphenyl)-1H-pyrazole]		81 nM	
COc1ccccc1-n1nc(OC2CC(C)(C)OC(C)(C)C2)cc1-c1ccc(C#N)cc1 [Compound 43, 4-{1-(2-Methoxyphenyl)-3-[(2,2,6,6-tetramethyltetrahydro-2H-pyran-4-yl)oxy]-1H-pyrazol-5-yl}benzonitrile]		7.2 nM	90%
COc1ccccc1-n1nc(O[C@H]2CC(C)(C)[S@+]([O-])C(C)(C)C2)cc1-c1ccc(Cl)cc1.O=C(O)C(F)(F)F [Compound 38, (1r,4r)-4-((5-(4-chlorophenyl)-1-(2-methoxyphenyl)-1H-pyrazol-3-yl)oxy)-2,2,6,6-tetramethyltetrahydro-2H-thiopyran 1-oxide trifluoroacetate]	98%	2.7 nM	
COc1ccccc1-n1nc(OC2CC(C)(C)SC(C)(C)C2)cc1-c1ccc(C#N)cc1 [Compound 44, 4-{1-(2-Methoxyphenyl)-3-[(2,2,6,6-tetramethyltetrahydro-2H-thiopyran-4-yl)oxy]-1H-pyrazol-5-yl}benzonitrile]		12 nM	87%
COc1ccccc1-n1nc(O[C@H]2CC[C@@H](NC(=O)OC(C)(C)C)CC2)cc1-c1ccc(Cl)cc1 [Compound 11, tert-Butyl (cis-4-{[5-(4-chlorophenyl)-1-(2-methoxyphenyl)-1H-pyrazol-3-yl]oxy}cyclohexyl)carbamate]		62 nM	
